Measurements reported in ChEMBL document CHEMBL1275485, “The antimalarial trioxaquine DU1301 alkylates heme in malaria-infected mice” (Antimicrob Agents Chemother, 2008).
Active and inactive are the calls of the source. The rule behind the calls is not given here.

Experiments:
Spleen = assay: Induction of heme alkylation in Plasmodium vinckei petteri-infected Swiss albino mice (Mus musculus) spleen assessed as covalent heme-drug adduct formation at 100 mg/kg, perorally administered as single dose measured by liquid chromatography-mass spectrometry method; type: functional, organism-based; parameters: dose 100 mg/kg
Kidney = assay: Induction of heme alkylation in Plasmodium vinckei petteri-infected Swiss albino mice (Mus musculus) kidney assessed as heme-drug adduct at 100 mg/kg, perorally administered as single dose measured by liquid chromatography-mass spectrometry method; type: functional, organism-based; parameters: dose 100 mg/kg

## CC(C)C1=C[C@H]2OC3(CCC(NCCNc4ccnc5cc(Cl)ccc45)CC3)OO[C@@]2(C)CC1 (some centres not stated)
Spleen
  Activity: Active
Kidney
  Activity: inactive
